Source: patent publication US10071968B2 (priority 2014, dated 2018)

What follows are compounds tested against human σ1 receptor (Homo sapiens, UniProt Q99720) (assay: Human σ1 receptor radioligand assay ([3H](+)-pentazocine, transfected HEK-293 membranes)). Settings: one combined class for Ki-σ1 (A1) and Ki-μ (human μ-opioid receptor, A2).
human σ1 receptor, sequence (Q99720 whole entry): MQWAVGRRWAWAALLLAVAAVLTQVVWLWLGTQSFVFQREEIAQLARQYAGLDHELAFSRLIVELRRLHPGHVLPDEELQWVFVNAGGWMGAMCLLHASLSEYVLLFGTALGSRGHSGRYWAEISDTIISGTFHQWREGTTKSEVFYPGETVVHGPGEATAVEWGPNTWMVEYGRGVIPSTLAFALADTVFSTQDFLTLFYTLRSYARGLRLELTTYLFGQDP
Type: binding
Design: μ and σ1 dual binding: key to the marks not given beside the values
Procedure: To investigate binding properties of test compounds to human σ1 receptor, transfected HEK-293 membranes and [^3H](+)-pentazocine (Perkin Elmer, NET-1056), as the radioligand, were used. The assay was carried out with 7 μg of membrane suspension, 5 nM of [^3H](+)-pentazocine in either absence or presence of either buffer or 10 μM Haloperidol for total and non-specific binding, respectively. Binding buffer contained Tris-HCl 50 mM at pH 8. Plates were incubated at 37° C. for 120 minutes. After the incubation period, the reaction mix was then transferred to MultiScreen HTS, FC plates (Millipore), filtered and plates were washed 3 times with ice-cold 10 mM Tris-HCL (pH7.4). Filters were dried and counted at approximately 40% efficiency in a MicroBeta scintillation counter (Perkin-Elmer) using EcoScint liquid scintillation cocktail
With CN(CCOC(c1ccccc1)c1ccnn1C)Cc1ccc(F)cc1 (stereo not shown) [Example 8, N-(4-fluorobenzyl)-N-methyl-2-((1-methyl-1H-pyrazol-5-yl)(phenyl)methoxy)ethanamine] the “μ and σ1 dual binding” value was “++”. With CN(CCO[C@H](c1ccccc1)c1ccnn1C)Cc1ccccc1 [Example 9, (R)-N-benzyl-N-methyl-2-((1-methyl-1H-pyrazol-5-yl)(phenyl)methoxy)ethanamine] the “μ and σ1 dual binding” value was “++”. CN(CCO[C@H](c1ccccc1)c1ccnn1C)Cc1ccc(F)cc1 [Example 10, (R)-N-(4-fluorobenzyl)-N-methyl-2-((1-methyl-1H-pyrazol-5-yl)(phenyl)methoxy)ethanamine] was tested, and the “μ and σ1 dual binding” value was “++”. CN(CCO[C@H](c1ccccc1)c1ccnn1C)CCc1ccccc1 [Example 11, (R)-N-methyl-2-((1-methyl-1H-pyrazol-5-yl)(phenyl)methoxy)-N-phenethylethanamine] was tested, and the “μ and σ1 dual binding” value was “++”. With CC(c1ccccc1)N(C)CCOC(c1ccccc1)c1ccnn1C (stereo not shown) [Example 16, N-methyl-2-((1-methyl-1H-pyrazol-5-yl)(phenyl)methoxy)-N-(1-phenylethyl)ethanamine] the “μ and σ1 dual binding” value was “++”. In the case of COc1cccc(CN(C)CCOC(c2ccccc2)c2ccnn2C)c1 (stereo not shown) [Example 23, N-(3-methoxybenzyl)-N-methyl-2-((1-methyl-1H-pyrazol-5-yl)(phenyl)methoxy)ethanamine], the “μ and σ1 dual binding” value is reported as “++”. For CC(C)N(CCOC(c1ccccc1)c1ccnn1C)Cc1ccccc1 (stereo not shown) [Example 27, N-benzyl-N-(2-((1-methyl-1H-pyrazol-5-yl)(phenyl)methoxy)ethyl)propan-2-amine], the “μ and σ1 dual binding” value was “++”. In the case of CC(C)N(CCOC(c1ccccc1)c1ccnn1C)Cc1cccc(F)c1 (stereo not shown) [Example 29, N-(3-fluorobenzyl)-N-(2-((1-methyl-1H-pyrazol-5-yl)(phenyl)methoxy)ethyl)propan-2-amine], the “μ and σ1 dual binding” value is reported as “++”. With Cc1ccsc1[C@@H](OCCN(C)Cc1ccccc1)c1ccnn1C [Example 30, (S)-N-benzyl-N-methyl-2-((1-methyl-1H-pyrazol-5-yl)(3-methylthiophen-2-yl)methoxy)ethanamine] the “μ and σ1 dual binding” value was “++”. With COc1ccccc1C(OCCN(C)Cc1ccccc1)c1ccnn1C (stereo not shown) [Example 39, N-benzyl-2-((2-methoxyphenyl)(1-methyl-1H-pyrazol-5-yl)methoxy)-N-methylethanamine] the “μ and σ1 dual binding” value was “++”. With CN(CCOC(c1cccnc1)c1ccnn1C)Cc1cccc(F)c1 (stereo not shown) [Example 46, N-(3-fluorobenzyl)-N-methyl-2-((1-methyl-1H-pyrazol-5-yl)(pyridin-3-yl)methoxy)ethanamine] the “μ and σ1 dual binding” value was “++”. COc1ccccc1C(OCCN(C)Cc1cccc(F)c1)c1ccnn1C (stereo not shown) [Example 48, N-(3-fluorobenzyl)-2-((2-methoxyphenyl)(1-methyl-1H-pyrazol-5-yl)methoxy)-N-methylethanamine] was tested, and the “μ and σ1 dual binding” value was “++”. In the case of CN(CCOC(c1cncs1)c1ccnn1C)Cc1cccc(F)c1 (stereo not shown) [Example 49, N-(3-fluorobenzyl)-N-methyl-2-((1-methyl-1H-pyrazol-5-yl)(thiazol-5-yl)methoxy)ethanamine], the “μ and σ1 dual binding” value is reported as “++”. In the case of CN(CCOC(c1ccc(O)cc1)c1ccnn1C)Cc1ccccc1 (stereo not shown) [Example 51, 4-((2-(benzyl(methyl)amino)ethoxy)(1-methyl-1H-pyrazol-5-yl)methyl)phenol], the “μ and σ1 dual binding” value is reported as “++”.

Same assay, conditions: one combined class for Ki-σ1 (A1) and Ki-μ (human μ-opioid receptor, A2); read-out: μ and σ1 dual binding
CN(CCOC(c1ccccc1)c1ccnn1C)Cc1ccc(C(F)(F)F)nc1 (stereo not shown) [Example 3, N-methyl-2-((1-methyl-1H-pyrazol-5-yl)(phenyl)methoxy)-N-((6-(trifluoromethyl)pyridin-3-yl)methyl)ethanamine] gave a Ki greater than 500 nM. CN(CCOC(c1ccccc1)c1ccnn1C)CCc1ccccc1 (stereo not shown) [Example 7, N-methyl-2-((1-methyl-1H-pyrazol-5-yl)(phenyl)methoxy)-N-phenethylethanamine] was tested, and the Ki was less than 500 nM. CN(CCO[C@@H](c1ccccc1)c1ccnn1C)CCc1ccccc1 [Example 19, (S)-N-methyl-2-((1-methyl-1H-pyrazol-5-yl)(phenyl)methoxy)-N-phenethylethanamine] was tested, and the Ki was less than 500 nM. CN(CCSC(c1ccccc1)c1ccnn1C)Cc1ccccc1 (stereo not shown) [Example 33, N-benzyl-N-methyl-2-((1-methyl-1H-pyrazol-5-yl)(phenyl)methylthio)ethanamine] was tested, and the Ki was less than 500 nM. With CN(CC[S+]([O-])C(c1ccccc1)c1ccnn1C)Cc1ccccc1 (stereo not shown) [Example 34, N-Benzyl-N-methyl-2-((1-methyl-1H-pyrazol-5-yl)(phenyl)methylsulfinyl)ethanamine] the Ki was greater than 500 nM. With CN(CCOC(c1ccccn1)c1ccnn1C)Cc1ccccc1 (stereo not shown) [Example 40, N-benzyl-N-methyl-2-((1-methyl-1H-pyrazol-5-yl)(pyridin-2-yl)methoxy)ethanamine] the Ki was greater than 500 nM. With CN(CCOC(c1cncs1)c1ccnn1C)Cc1ccccc1 (stereo not shown) [Example 41, N-benzyl-N-methyl-2-((1-methyl-1H-pyrazol-5-yl)(thiazol-5-yl)methoxy)ethanamine] the Ki was greater than 500 nM. Work on CN(CCOC(c1ccccc1O)c1ccnn1C)Cc1ccccc1 (stereo not shown) [Example 52, 2-((2-(benzyl(methyl)amino)ethoxy)(1-methyl-1H-pyrazol-5-yl)methyl)phenol] yielded a Ki of less than 500 nM.
